Measurements published in paper PMC10100900, “Virtual Screening and In Vitro Experimental Verification of LuxS Inhibitors for Escherichia coli O157:H7” (Microbiology Spectrum, 2023).
Where two headings read alike, the source gives them in different places.

Tests used:
LuxS of E. coli = biological target: T1, LuxS of E. coli (Escherichia coli O157:H7, UniProt Q8X902); assay: AI-2 bioluminescence assay (V. harveyi BB170 reporter) of AI-2 production; assay type: cell-based; conditions: E. coli O157:H7 cultured 16 h with inhibitor, supernatant read with V. harveyi BB170
T1 construct: endogenous in cells; host or cells: E. coli O157:H7 (ATCC 43895)
T1 sequence (Q8X902 2-171): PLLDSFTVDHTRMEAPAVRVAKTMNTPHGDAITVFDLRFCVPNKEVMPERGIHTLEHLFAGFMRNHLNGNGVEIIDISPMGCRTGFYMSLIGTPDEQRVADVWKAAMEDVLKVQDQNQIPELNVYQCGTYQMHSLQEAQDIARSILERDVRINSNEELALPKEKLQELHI

LuxS = biological target: T2, LuxS (Escherichia coli O157:H7, UniProt Q8X902); assay: Surface plasmon resonance (BIAcore T200) binding
T2 sequence (Q8X902 2-171): T1 sequence (Q8X902 2-171)
Protocol: The binding affinity of the three compounds and LuxS was assessed by SPR assay using a BIAcore T200 (GE Healthcare, Pittsburgh, PA) ([64]). The LuxS protein was immobilized on a CM5 sensor chip with the final immobilization levels of 7,582.4 resonance units (RU). The running buffer used in the study was 1.0× phosphate-buffered saline containing detergent (PBS-P^+; pH 7.4) and 5% (vol/vol) dimethyl sulfoxide. For each binding cycle, the compound was injected for 120 s with a dissociation time of 180 s. A series of compound concentrations (0.94, 1.88, 3.75, 7.5, 15, and 30 μM) were injected for analysis, with furanone C30 as a positive control. Eventually, data were analyzed by Biacore evaluation software, whereas the equilibrium dissociation constant (KD = Kd/Ka) was calculated by curve fitting with a 1:1 binding model.

E. coli O157:H7 biofilm = assay: Biofilm formation, crystal violet (CV) staining; assay type: cell-based, Escherichia coli O157:H7; conditions: 50 μM, 24 h
Protocol: Based on previous studies, CV staining was used to assess biofilm formation ([67]). The overnight cultured E. coli O157:H7 was diluted to OD600 of 0.01. The diluted E. coli suspensions were mixed with different concentrations of hit compounds and incubated at 37°C for 24 h. The plate was washed three times using PBS (pH 7.2) before it was fixed with methanol for 30 min. After staining for 30 min with CV, the plates were rinsed with distilled water and dried at 55°C. Finally, the CV attached to wells was dissolved in 95% ethanol. The absorbance at 570 nm was then measured using a Multiskan Go Reader.

luxS gene = assay type: cell-based, E. coli
Caco-2 cells = assay: Cytotoxicity, CCK-8 assay; assay type: cell-based; conditions: 24 h
Protocol: The cytotoxicity of hit compounds was assessed by a CCK-8 assay in Caco-2 cells. At 37°C, Caco-2 cells (1 × 10^5 cells/mL) were seeded in a 96-well plate for 24 h. Further, different concentrations of hit compounds were added to 96-well plates at final concentrations of 6.25, 12.5, 25, 50, and 100 μM. After incubation for 24 h, the plate was incubated at 37°C for 1 h with 10 μL of CCK-8 (MCE, China). A Multiskan Go Reader (Thermo Fisher Scientific) was used to measure the absorbance at 450 nm.

E. coli O157:H7 [1] = assay: Metabolic activity, alamarBlue assay; conditions: 6.25 to 100 μM, 24 h, compared to the control
E. coli O157:H7 [2] = assay: Growth, microbroth dilution assay (OD600); assay type: cell-based, Escherichia coli O157:H7; conditions: 6.25 to 100 μM, 24 h, compared to the control
Protocol: As described for previous protocols, growth and metabolic activity were evaluated by the broth dilution method and an alamarBlue assay ([65], [66]). Briefly, 96-well plates were seeded with bacterial suspension (OD600 = 0.01) containing different concentrations of hit compounds and incubated at 37°C for 24 h. At 600 nm, the absorbance was measured using the Multiskan Go Reader (Thermo Fisher Scientific, USA).

[3] = IC50, AI-2 bioluminescence assay

SMILES: O=C(NCc1nc2ccccc2[nH]1)c1ccccc1 [0180-0358]
- IC50 (LuxS of E. coli; [3]): 22.5 µM

SMILES: CCOc1ccc(NCC(=O)N/N=C/c2c[nH]c3ccccc23)cc1 [1761-1352]
- IC50 (LuxS of E. coli; [3]): 29.2 µM

SMILES: O=C(N/N=C/c1ccc(O)c(O)c1)c1cc(-c2ccc3ccccc3c2)n[nH]1 [3254-3286]
- Kd (LuxS): 18.5 µM
- biofilm formation, increased by about (E. coli O157:H7 biofilm): ~81.12%
- suppression of the expression of LuxS (luxS gene): ~57.4%
- cytotoxicity to Caco-2 cells (Caco-2 cells; 6.25 to 100 μM): nontoxic
- effect on metabolic activity of E. coli (E. coli O157:H7 [1]): no significant effect
- effect on growth of E. coli (E. coli O157:H7 [2]): no significant effect
- IC50 (LuxS of E. coli; [3]): 7.57 µM

SMILES: COc1ccc2[nH]c(C(=O)NC3CCC(CN4Cc5ccccc5C4=O)CC3)c(C)c2c1 (stereo not shown) [D753-0186]
- IC50 (LuxS of E. coli; [3]): 18.8 µM

SMILES: Cc1ccc2ccc3cc(C(=O)NCCN4CCN(c5cccc(Cl)c5)CC4)[nH]c3c2n1 [E941-0195]
- IC50 (LuxS of E. coli; [3]): 28.5 µM

SMILES: O=C(NCCN1CCN(c2cccc(Cl)c2)CC1)c1cc2ccc3cccnc3c2[nH]1 [E950-0195]
- IC50 (LuxS of E. coli; [3]): 32.8 µM

SMILES: O=C(NCCN1CCN(c2ccccc2F)CC1)c1cc2ccc3cccnc3c2[nH]1 [E950-0198]
- IC50 (LuxS of E. coli; [3]): 30.9 µM

SMILES: Cc1cc(CNC(=O)Nc2cccc3c2CCCC3)c(C)n1-c1ccccc1 [E983-1808]
- IC50 (LuxS of E. coli; [3]): 21.9 µM

SMILES: NC1=C(c2nc3ccccc3s2)C(=O)CN1c1cccc(C(=O)NCc2ccccc2)c1 [F187-0533]
- IC50 (LuxS of E. coli; [3]): 13.6 µM

SMILES: Cc1[nH]c(C(=O)NC2CCCCC2)c(C)c1S(=O)(=O)N1CCCCCC1 [F379-1612]
- IC50 (LuxS of E. coli; [3]): 26.1 µM

SMILES: COc1ccc(C(=O)Nc2cc(NC(=O)c3cc4ccccc4[nH]3)ccc2OC)cc1 [F603-0744]
- IC50 (LuxS of E. coli; [3]): 12.3 µM

SMILES: O=C(NCC1CCN(Cc2ccc(Cl)cc2)CC1)c1n[nH]c2c1COc1ccccc1-2 [G365-0523]
- IC50 (LuxS of E. coli; [3]): 12.2 µM

SMILES: COc1cccc(NC(=O)CSCc2cc(=O)c3ccccc3[nH]2)c1 [G751-0153]
- IC50 (LuxS of E. coli; [3]): 16.8 µM

SMILES: CCc1ccc(NC(=O)CSCc2cc(=O)c3cccc(F)c3[nH]2)cc1 [G751-5415]
- IC50 (LuxS of E. coli; [3]): 26.4 µM

SMILES: CCc1ccc(NC(=O)CSCc2cc(=O)c3cc(CC)ccc3[nH]2)cc1 [G751-5495]
- IC50 (LuxS of E. coli; [3]): 24.8 µM

SMILES: Cc1ccc(C(=O)N2CCc3cc(CNC(=O)c4ccc(C#N)cc4)ccc32)cc1 [G883-0304]
- IC50 (LuxS of E. coli; [3]): 19 µM

SMILES: Cc1ccc(C(=O)N2CCc3cc(CNC(=O)c4ccc(Br)cc4)ccc32)cc1 [G883-0331]
- IC50 (LuxS of E. coli; [3]): 15 µM

SMILES: Cc1ccc(C(=O)NCc2ccc3c(c2)CCN3C(=O)c2ccc(Cl)cc2)cc1 [G883-0476]
- IC50 (LuxS of E. coli; [3]): 18.6 µM

SMILES: O=C(NCc1ccc2c(c1)CCN2C(=O)c1ccccc1)c1ccc(Cl)cc1 [G883-0595]
- IC50 (LuxS of E. coli; [3]): 18.6 µM

SMILES: O=C(NCc1ccc2c(c1)CCN2C(=O)c1ccccc1)c1ccc(Br)cc1 [G883-0627]
- IC50 (LuxS of E. coli; [3]): 19.6 µM

SMILES: O=C(NCc1ccc2c(c1)CCN2C(=O)c1ccc(F)cc1)c1cc2ccccc2[nH]1 [G883-0849]
- IC50 (LuxS of E. coli; [3]): 21.8 µM

SMILES: CC(C)C(=O)N1CCc2cc(CNC(=O)c3cc4ccccc4[nH]3)ccc21 [G883-2010]
- IC50 (LuxS of E. coli; [3]): 24.9 µM

SMILES: O=C(NCc1nc(-c2ccc3c(c2)ncn3C2CCCC2)no1)c1ccccc1 [G945-0601]
- IC50 (LuxS of E. coli; [3]): 13.4 µM

SMILES: O=C(NC1CCN(Cc2ccccc2)CC1)c1ccc(-c2cc(N3CCCC3)ncn2)cc1 [L010-0050]
- IC50 (LuxS of E. coli; [3]): 20.4 µM

SMILES: CSc1ccc(CNC(=O)c2cccc(-c3cnc(N4CCCC4)nc3)c2)cc1 [L368-0079]
- biofilm formation, increased by about (E. coli O157:H7 biofilm): ~76.8%
- IC50 (LuxS of E. coli; AI-2 bioluminescence assay): 7.01 µM

SMILES: CCC(=O)N1CCc2cc(-c3ccc(C(=O)NC4CCN(Cc5ccccc5)CC4)cc3)ccc21 [L413-0101]
- IC50 (LuxS of E. coli; [3]): 13.3 µM

SMILES: CCC(=O)N1CCc2cc(-c3ccc(C(=O)NCc4ccc(N(C)C)cc4)cc3)ccc21 [L413-0180]
- Kd (LuxS): 77.7 µM
- biofilm formation, increased by about (E. coli O157:H7 biofilm): ~51.4%
- suppression of the expression of LuxS (luxS gene): ~65.1%
- cytotoxicity to Caco-2 cells (Caco-2 cells; 100 μM): slightly cytotoxic
- cytotoxicity to Caco-2 cells (Caco-2 cells; 6.25 to 50 μM): nontoxic
- effect on metabolic activity of E. coli (E. coli O157:H7 [1]): no significant effect
- effect on growth of E. coli (E. coli O157:H7 [2]): no significant effect
- IC50 (LuxS of E. coli; [3]): 4.03 µM

SMILES: CSc1ccc(CNC(=O)C2=Cc3cc(-c4ccccc4)ccc3OC2)cc1 [L449-1159]
- biofilm formation, increased by about (E. coli O157:H7 biofilm): about 75.4%
- IC50 (LuxS of E. coli; AI-2 bioluminescence assay): 8.64 µM

SMILES: CCCn1cnc2cc(CNC(=O)c3cc4cc(Cl)ccc4[nH]3)ccc21 [M414-3326]
- Kd (LuxS; read-out: equilibrium dissociation constant (KD), LuxS immobilized on CM5 chip, PBS-P+ pH 7.4, 5% DMSO, 1:1 binding model): 1.92 µM
- biofilm formation, increased by about (E. coli O157:H7 biofilm): ~53.6%
- suppression of the expression of LuxS (luxS gene): about 59.9%
- cytotoxicity to Caco-2 cells (Caco-2 cells; 6.25 to 100 μM): nontoxic
- effect on metabolic activity of E. coli (E. coli O157:H7 [1]): no significant effect
- effect on growth of E. coli (E. coli O157:H7 [2]): no significant effect
- IC50 (LuxS of E. coli; AI-2 bioluminescence assay): 9.62 µM

SMILES: CCCc1c(C)c2ccc(OC(=O)CNC(=O)c3ccccc3)cc2oc1=O [Y040-2389]
- IC50 (LuxS of E. coli; [3]): 12.8 µM

SMILES: O=C1C=C(Br)/C(=C/Br)O1 [furanone C30, reference compound]
- Kd (LuxS; LuxS immobilized on CM5 chip, PBS-P+ pH 7.4, 5% DMSO, 1:1 binding model, read-out: equilibrium dissociation constant (KD)): 0.345 µM
